Source: PubChem BioAssay (NCI)
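Protocol summary: plate cells (96-well), add compound at 5 concentrations, incubate 48 h, interpolate endpoints linearly. GI50: concentration for 50% inhibition of growth. TGI denotes the concentration required for complete inhibition of growth.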

How the values were obtained:
Assay in all cases: NCI anticancer screen, dose series, 48 h
SK-MEL-28 melanoma = test system: SK-MEL-28 melanoma
CAKI-1 renal = test system: CAKI-1 renal
UO-31 renal = test system: UO-31 renal
ACHN renal = test system: ACHN renal
SW-620 colon = test system: SW-620 colon
CCRF-CEM leukemia = test system: CCRF-CEM leukemia
OVCAR-4 ovarian = test system: OVCAR-4 ovarian
NCI-H23 lung = test system: NCI-H23 lung
SK-MEL-5 melanoma = test system: SK-MEL-5 melanoma
HCT-15 colon = test system: HCT-15 colon

Structure (SMILES): O=[N+]([O-])c1cccc(C2SCc3nc4ccccc4n32)c1 (configuration not stated)
- TGI (SK-MEL-28 melanoma): > 100 µM
- TGI (CAKI-1 renal): > 100 µM
- TGI (UO-31 renal): > 100 µM
- TGI (ACHN renal): > 100 µM
- TGI (SW-620 colon): > 100 µM
- TGI (CCRF-CEM leukemia): > 100 µM
- TGI (OVCAR-4 ovarian): > 100 µM
- TGI (NCI-H23 lung): > 100 µM
- TGI (SK-MEL-5 melanoma): 52.8 µM

Structure (SMILES): COc1cc2c(cc1OCCCCNC(=O)c1cc3ccccc3[nH]1)N=CC1CCCN1C2=O (configuration not stated)
- GI50 (SK-MEL-28 melanoma): 37.5 µM
- TGI (SK-MEL-28 melanoma): > 100 µM
- GI50 (UO-31 renal): 7.16 µM
- TGI (UO-31 renal): 74.1 µM
- GI50 (ACHN renal): 22.6 µM
- TGI (ACHN renal): > 100 µM
- GI50 (SW-620 colon): 9.84 µM
- TGI (SW-620 colon): 67.6 µM
- GI50 (CCRF-CEM leukemia): 3.45 µM
- TGI (CCRF-CEM leukemia): > 100 µM
- GI50 (OVCAR-4 ovarian): 28.2 µM
- TGI (OVCAR-4 ovarian): 94.4 µM
- GI50 (NCI-H23 lung): 28.4 µM
- TGI (NCI-H23 lung): > 100 µM
- GI50 (HCT-15 colon): 16.4 µM
- TGI (HCT-15 colon): 58.2 µM
- GI50 (SK-MEL-5 melanoma): 5.65 µM
- TGI (SK-MEL-5 melanoma): 23.9 µM

Structure (SMILES): O=C(CC(=O)N1N=C(n2ccc3ccccc32)CC1c1ccccc1)Nc1cccc(Cl)c1 (configuration not stated)
- TGI (SK-MEL-28 melanoma): > 100 µM
- TGI (UO-31 renal): > 100 µM
- TGI (ACHN renal): > 100 µM
- TGI (SW-620 colon): > 100 µM
- TGI (CCRF-CEM leukemia): > 100 µM
- TGI (OVCAR-4 ovarian): > 100 µM
- TGI (NCI-H23 lung): > 100 µM
- TGI (HCT-15 colon): > 100 µM

Structure (SMILES): O=C1CCCCC/C=C2/CC[C@H](Sc3ccccc3)[C@@H]12
- TGI (SK-MEL-28 melanoma): > 100 µM
- TGI (UO-31 renal): > 100 µM
- TGI (ACHN renal): > 100 µM
- TGI (SW-620 colon): > 100 µM
- TGI (CCRF-CEM leukemia): > 100 µM
- TGI (OVCAR-4 ovarian): > 100 µM
- TGI (NCI-H23 lung): > 100 µM
- TGI (HCT-15 colon): > 100 µM
- TGI (SK-MEL-5 melanoma): > 100 µM

Structure (SMILES): O=C(Nc1cccc(Cl)c1)Nc1cccc(Cl)c1
- GI50 (SK-MEL-28 melanoma): > 100 µM
- TGI (SK-MEL-28 melanoma): > 100 µM
- GI50 (UO-31 renal): > 26 µM
- TGI (UO-31 renal): > 100 µM
- GI50 (OVCAR-4 ovarian): 1.99 µM
- TGI (OVCAR-4 ovarian): > 100 µM
- GI50 (SK-MEL-5 melanoma): > 100 µM
- TGI (SK-MEL-5 melanoma): > 100 µM

Structure (SMILES): CC(C)c1cc(C(C)C)c(S(=O)(=O)NN)c(C(C)C)c1
- TGI (SK-MEL-28 melanoma): > 100 µM
- TGI (CAKI-1 renal): > 100 µM
- TGI (ACHN renal): > 100 µM
- TGI (SW-620 colon): > 100 µM
- TGI (OVCAR-4 ovarian): > 100 µM
- TGI (NCI-H23 lung): > 100 µM
- TGI (HCT-15 colon): > 100 µM
- TGI (SK-MEL-5 melanoma): > 100 µM

Structure (SMILES): CN(C)CC(C(=O)c1ccccc1)c1ccccc1 (configuration not stated)
- GI50 (SK-MEL-28 melanoma): 4.13 µM
- TGI (SK-MEL-28 melanoma): 13.6 µM
- GI50 (CAKI-1 renal): 0.966 µM
- TGI (CAKI-1 renal): 2.67 µM
- GI50 (UO-31 renal): 1.49 µM
- TGI (UO-31 renal): 3.02 µM
- GI50 (ACHN renal): 1.36 µM
- TGI (ACHN renal): 2.65 µM
- GI50 (SW-620 colon): 0.396 µM
- TGI (SW-620 colon): 1.57 µM
- GI50 (CCRF-CEM leukemia): 0.755 µM
- TGI (CCRF-CEM leukemia): 10.9 µM
- GI50 (NCI-H23 lung): 2.95 µM
- TGI (NCI-H23 lung): 12.7 µM
- GI50 (HCT-15 colon): 1.11 µM
- TGI (HCT-15 colon): 2.54 µM
- GI50 (SK-MEL-5 melanoma): 1.57 µM
- TGI (SK-MEL-5 melanoma): 3.45 µM

Structure (SMILES): COc1ccc(/C=C/C(=O)c2sc(N)nc2C)cc1
- TGI (SK-MEL-28 melanoma): > 100 µM
- TGI (CAKI-1 renal): > 100 µM
- TGI (UO-31 renal): > 100 µM
- TGI (SW-620 colon): > 100 µM
- TGI (CCRF-CEM leukemia): > 100 µM
- TGI (NCI-H23 lung): > 100 µM
- TGI (HCT-15 colon): > 100 µM
- TGI (SK-MEL-5 melanoma): > 100 µM

Structure (SMILES): CCc1cccc(C(C)CC)c1N=C(NC(=O)c1ccccc1C(=O)NC(=Nc1c(CC)cccc1C(C)CC)SC)SC (configuration not stated)
- TGI (SK-MEL-28 melanoma): > 100 µM
- TGI (CAKI-1 renal): > 100 µM
- TGI (UO-31 renal): > 100 µM
- TGI (ACHN renal): > 100 µM
- TGI (SW-620 colon): > 100 µM
- TGI (CCRF-CEM leukemia): > 100 µM
- TGI (OVCAR-4 ovarian): > 100 µM
- TGI (NCI-H23 lung): > 100 µM
- TGI (HCT-15 colon): > 100 µM

Structure (SMILES): Nc1nc(-c2ccccc2)c(-c2ccccc2)c(-c2nc(N)nc(-c3ccccc3)c2-c2ccccc2)n1
- TGI (SK-MEL-28 melanoma): > 100 µM
- TGI (CAKI-1 renal): > 100 µM
- TGI (UO-31 renal): > 100 µM
- TGI (ACHN renal): > 100 µM
- TGI (SW-620 colon): > 100 µM
- TGI (OVCAR-4 ovarian): > 100 µM
- TGI (NCI-H23 lung): > 100 µM
- TGI (HCT-15 colon): > 100 µM
- TGI (SK-MEL-5 melanoma): > 100 µM

Structure (SMILES): COC(=O)CCC(NC(=S)N/N=C(\C)c1ccccn1)C(=O)OC (configuration not stated)
- TGI (SK-MEL-28 melanoma): > 100 µM
- TGI (UO-31 renal): > 100 µM
- TGI (ACHN renal): > 100 µM
- TGI (SW-620 colon): > 100 µM
- TGI (CCRF-CEM leukemia): > 100 µM
- TGI (OVCAR-4 ovarian): > 100 µM
- TGI (NCI-H23 lung): > 100 µM
- TGI (HCT-15 colon): > 100 µM
- TGI (SK-MEL-5 melanoma): > 100 µM

Structure (SMILES): COc1ccc(Nc2c3ccccc3nc3c2c2ccccc2n3C)cc1
- GI50 (SK-MEL-28 melanoma): > 100 µM
- TGI (SK-MEL-28 melanoma): > 100 µM
- GI50 (CAKI-1 renal): 30.7 µM
- TGI (CAKI-1 renal): > 100 µM
- GI50 (UO-31 renal): > 100 µM
- TGI (UO-31 renal): > 100 µM
- GI50 (ACHN renal): 21.6 µM
- TGI (ACHN renal): > 100 µM
- GI50 (SW-620 colon): 41.7 µM
- TGI (SW-620 colon): > 100 µM
- GI50 (NCI-H23 lung): 34.8 µM
- TGI (NCI-H23 lung): > 100 µM
- GI50 (HCT-15 colon): 11.1 µM
- TGI (HCT-15 colon): > 100 µM
- GI50 (SK-MEL-5 melanoma): 14 µM
- TGI (SK-MEL-5 melanoma): 37.4 µM

Structure (SMILES): NC(=S)N/N=C(/CC(=O)c1ccc([N+](=O)[O-])cc1)C(=O)Nc1ncc([N+](=O)[O-])s1
- TGI (SK-MEL-28 melanoma): > 100 µM
- TGI (UO-31 renal): > 100 µM
- TGI (ACHN renal): > 100 µM
- TGI (SW-620 colon): > 100 µM
- TGI (CCRF-CEM leukemia): > 100 µM
- TGI (OVCAR-4 ovarian): > 100 µM
- TGI (NCI-H23 lung): > 100 µM
- TGI (SK-MEL-5 melanoma): > 100 µM

Structure (SMILES): CC(=O)OC1C=CC2CCN3C(=O)c4cc5c(cc4[C@H]1C23)OCO5 (some centres not stated)
- TGI (SK-MEL-28 melanoma): > 100 µM
- TGI (UO-31 renal): > 100 µM
- TGI (ACHN renal): > 100 µM
- TGI (SW-620 colon): > 100 µM
- TGI (CCRF-CEM leukemia): > 100 µM
- TGI (NCI-H23 lung): > 100 µM
- TGI (HCT-15 colon): > 100 µM

Structure (SMILES): COC(=O)/C(C#N)=C\N1CCN(C(=O)c2ccco2)C1=S
- GI50 (SK-MEL-28 melanoma): 13 µM
- TGI (SK-MEL-28 melanoma): 79.6 µM
- GI50 (CAKI-1 renal): 3.43 µM
- TGI (CAKI-1 renal): 14.1 µM
- GI50 (UO-31 renal): 5.19 µM
- TGI (UO-31 renal): 21.3 µM
- GI50 (ACHN renal): 4.81 µM
- TGI (ACHN renal): 23.3 µM
- GI50 (SW-620 colon): 5.2 µM
- TGI (SW-620 colon): 19.7 µM
- GI50 (OVCAR-4 ovarian): 23.3 µM
- TGI (OVCAR-4 ovarian): 58.8 µM
- GI50 (NCI-H23 lung): 13.2 µM
- TGI (NCI-H23 lung): 27.7 µM
- GI50 (HCT-15 colon): 2.95 µM
- TGI (HCT-15 colon): > 100 µM
- GI50 (SK-MEL-5 melanoma): 14.8 µM
- TGI (SK-MEL-5 melanoma): 31 µM
